Experimental data as given in patent publication US10154957B2, “Microneedle device having a peptide therapeutic agent and an amino acid and methods of making and using the same” (3M INNOVATIVE PROPERTIES COMPANY, priority 2011, dated 2018).
Marks after values point to notes of the source that are not given here.

Assay: Percent purity of PTHrP analogue in coating with varying His-HCl concentration, three storage conditions (HPLC)
Type: physicochemical
Settings: peptide 10 mg/mL in PBS
Description: The protein or polypeptide content in the formulation coated on the microneedle arrays was determined using an Agilent 1100 HPLC system (Agilent Technologies, Wilmington, Del.) equipped with a binary pump, well-plated thermostated autosampler, thermostated column compartment, and a diode array UV detector. A Zorbax 300SB-C8 column (Agilent Technologies, Wilmington, Del.) having a 5 μm particle size and 2.1×150 mm inner diameter was used for the separations. The column was maintained at 50° C. The mobile phase consisted of two eluents. Eluent A was 0.1% TFA (trifluoroacetic acid) in water and eluent B was 0.1% TFA in acetonitrile (Spectrum Chemical, New Brunswick, N.J.). A linear gradient from 80/20 to 50/50 (A/B) was applied over 30 minutes. The flow rate was 0.4 mL/minute and the UV detection wavelength was set at 214 nm. The total run time was 34 minutes and the sample injection volume was 15 μL.
Five sample formulations were prepared containing 10 mg/mL of [Glu^22,25,Leu^23,28,31,Aib^29,Lys^26,30]hPTHrP(1-34)NH2 and varying concentrations of L-histidine monohydrochloride (His-HCl) in PBS. The concentrations of His-HCl in the sample formulations range from 1 mg/mL to 10 mg/mL. A control formulation was also prepared containing 10 mg/mL of [Glu^22,25,Leu^23,28,31,Aib^29,Lys^26,30]hPTHrP(1-34)NH2 in PBS. […] Microneedle arrays were coated with either the sample or the control formulations. The coating was applied by dropwise addition of 40 μL of the formulation to the portion of the array defined by the octagon shaped pattern of microneedles. The flood coated arrays (both sample and control formulation coated) were dried in an oven at 35° C. for 1.5 hours followed by 30° C. for 15 hours.
After drying, the coated arrays were placed in a storage chamber that was maintained at one of three storage conditions: 40° C./96% RH (storage condition A); 25° C./60% RH (storage condition B); or 5° C./ambient RH. The [Glu^22,25,Leu^23,28,31,Aib^29,Lys^26,30]hPTHrP(1-34)NH2 content of the coated arrays was determined following storage in a chamber for 1 day, 3 days, 7 days, 14 days, 21 days, 28 days, and 2 months. The initial [Glu^22,25,Leu^23,28,31,Aib^29,Lys^26,30]hPTHrP(1-34)NH2 content was also determined using freshly coated arrays (both sample and control formulation coated). The arrays used to determine initial content were stored in a refrigerator at about 4° C. and analyzed within one day of being prepared. At the designated time point, an array was taken from the chamber and washed with PBS (3.5 mL) to remove the coating from the array. An aliquot of the resulting wash solution was analyzed for [Glu^22,25,Leu^23,28,31,Aib^29,Lys^26,30]hPTHrP(1-34)NH2 content using the HPLC method described above. The results were quantified against an external standard of [Glu^22,25,Leu^23,28,31,Aib^29,Lys^26,30]hPTHrP(1-34)NH2. At each time point, the percent purity of [Glu^22,25,Leu^23,28,31,Aib^29,Lys^26,30]hPTHrP(1-34)NH2 in the coating was determined by measuring the peak area for [Glu^22,25,Leu^23,28,31,Aib^29,Lys^26,30]hPTHrP(1-34)NH2 in the selected coating and dividing it by the total peak area measured for all [Glu^22,25,Leu^23,28,31,Aib^29,Lys^26,30]hPTHrP(1-34)NH2 related peaks.

Percent Purity of [Glu^22,25, Leu^23,28,31, Aib^29, Lys^26,30]hPTHrP(1-34)NH2 (Histidine-HCl 3.3 mg/mL, Storage Condition B (25° C./60% RH), Initial): 99.3% | Percent Purity of [Glu^22,25, Leu^23,28,31, Aib^29, Lys^26,30]hPTHrP(1-34)NH2 (Histidine-HCl 5 mg/mL, Storage Condition A (40° C./96% RH), Day 1): 98.7% | Percent Purity of [Glu^22,25, Leu^23,28,31, Aib^29, Lys^26,30]hPTHrP(1-34)NH2 (Histidine-HCl 5 mg/mL, Storage Condition A (40° C./96% RH), Day 3): 97.5% | Percent Purity of [Glu^22,25, Leu^23,28,31, Aib^29, Lys^26,30]hPTHrP(1-34)NH2 (Histidine-HCl 5 mg/mL, Storage Condition A (40° C./96% RH), Day 7): 92.0% | Percent Purity of [Glu^22,25, Leu^23,28,31, Aib^29, Lys^26,30]hPTHrP(1-34)NH2 (Histidine-HCl 5 mg/mL, Storage Condition A (40° C./96% RH), Day 14): 65.1% | Percent Purity of [Glu^22,25, Leu^23,28,31, Aib^29, Lys^26,30]hPTHrP(1-34)NH2 (Histidine-HCl 5 mg/mL, Storage Condition A (40° C./96% RH), Day 21, the sample for analysis contained insoluble impurities): 33.8^(a) percent | Percent Purity of [Glu^22,25, Leu^23,28,31, Aib^29, Lys^26,30]hPTHrP(1-34)NH2 (Histidine-HCl 5 mg/mL, Storage Condition A (40° C./96% RH), Initial): 99.0% | Percent Purity of [Glu^22,25, Leu^23,28,31, Aib^29, Lys^26,30]hPTHrP(1-34)NH2 (Histidine-HCl 5 mg/mL, Storage Condition B (25° C./60% RH), 2 months): 98.4% | Percent Purity of [Glu^22,25, Leu^23,28,31, Aib^29, Lys^26,30]hPTHrP(1-34)NH2 (Histidine-HCl 5 mg/mL, Storage Condition B (25° C./60% RH), Day 3): 98.9% | Percent Purity of [Glu^22,25, Leu^23,28,31, Aib^29, Lys^26,30]hPTHrP(1-34)NH2 (Histidine-HCl 5 mg/mL, Storage Condition B (25° C./60% RH), Day 7): 98.9% | Percent Purity of [Glu^22,25, Leu^23,28,31, Aib^29, Lys^26,30]hPTHrP(1-34)NH2 (Histidine-HCl 5 mg/mL, Storage Condition B (25° C./60% RH), Day 14): 98.9% | Percent Purity of [Glu^22,25, Leu^23,28,31, Aib^29, Lys^26,30]hPTHrP(1-34)NH2 (Histidine-HCl 5 mg/mL, Storage Condition B (25° C./60% RH), Day 28): 98.8% | Percent Purity of [Glu^22,25, Leu^23,28,31, Aib^29, Lys^26,30]hPTHrP(1-34)NH2 (Histidine-HCl 5 mg/mL, Storage Condition B (25° C./60% RH), Initial): 99.0% | Percent Purity of [Glu^22,25, Leu^23,28,31, Aib^29, Lys^26,30]hPTHrP(1-34)NH2 (Histidine-HCl 10 mg/mL, Storage Condition A (40° C./96% RH), Day 1): 98.7% | Percent Purity of [Glu^22,25, Leu^23,28,31, Aib^29, Lys^26,30]hPTHrP(1-34)NH2 (Histidine-HCl 10 mg/mL, Storage Condition A (40° C./96% RH), Day 3): 98.5% | Percent Purity of [Glu^22,25, Leu^23,28,31, Aib^29, Lys^26,30]hPTHrP(1-34)NH2 (Histidine-HCl 10 mg/mL, Storage Condition A (40° C./96% RH), Day 7): 97.7% | Percent Purity of [Glu^22,25, Leu^23,28,31, Aib^29, Lys^26,30]hPTHrP(1-34)NH2 (Histidine-HCl 10 mg/mL, Storage Condition A (40° C./96% RH), Day 14): 94.9% | Percent Purity of [Glu^22,25, Leu^23,28,31, Aib^29, Lys^26,30]hPTHrP(1-34)NH2 (Histidine-HCl 10 mg/mL, Storage Condition A (40° C./96% RH), Day 21): 80.8% | Percent Purity of [Glu^22,25, Leu^23,28,31, Aib^29, Lys^26,30]hPTHrP(1-34)NH2 (Histidine-HCl 10 mg/mL, Storage Condition A (40° C./96% RH), Initial): 99.0% | Percent Purity of [Glu^22,25, Leu^23,28,31, Aib^29, Lys^26,30]hPTHrP(1-34)NH2 (Histidine-HCl 10 mg/mL, Storage Condition B (25° C./60% RH), Day 3): 98.9% | Percent Purity of [Glu^22,25, Leu^23,28,31, Aib^29, Lys^26,30]hPTHrP(1-34)NH2 (Histidine-HCl 10 mg/mL, Storage Condition B (25° C./60% RH), Day 7): 98.9% | Percent Purity of [Glu^22,25, Leu^23,28,31, Aib^29, Lys^26,30]hPTHrP(1-34)NH2 (Histidine-HCl 10 mg/mL, Storage Condition B (25° C./60% RH), Day 14): 98.8% | Percent Purity of [Glu^22,25, Leu^23,28,31, Aib^29, Lys^26,30]hPTHrP(1-34)NH2 (Histidine-HCl 10 mg/mL, Storage Condition B (25° C./60% RH), Initial): 99.0% | Percent Purity of [Glu^22,25, Leu^23,28,31, Aib^29, Lys^26,30]hPTHrP(1-34)NH2 (Histidine-HCl none, Storage Condition B (25° C./60% RH), 2 months): 96.3% | Percent Purity of [Glu^22,25, Leu^23,28,31, Aib^29, Lys^26,30]hPTHrP(1-34)NH2 (Histidine-HCl none, Storage Condition B (25° C./60% RH), Day 3): 97.9% | Percent Purity of [Glu^22,25, Leu^23,28,31, Aib^29, Lys^26,30]hPTHrP(1-34)NH2 (Histidine-HCl none, Storage Condition B (25° C./60% RH), Day 7): 98.0% | Percent Purity of [Glu^22,25, Leu^23,28,31, Aib^29, Lys^26,30]hPTHrP(1-34)NH2 (Histidine-HCl none, Storage Condition B (25° C./60% RH), Day 14): 97.7% | Percent Purity of [Glu^22,25, Leu^23,28,31, Aib^29, Lys^26,30]hPTHrP(1-34)NH2 (Histidine-HCl none, Storage Condition B (25° C./60% RH), Day 28): 97.5% | Percent Purity of [Glu^22,25, Leu^23,28,31, Aib^29, Lys^26,30]hPTHrP(1-34)NH2 (Histidine-HCl none, Storage Condition B (25° C./60% RH), Initial): 98.7%
Substance: [Glu^22,25,Leu^23,28,31,Aib^29,Lys^26,30]hPTHrP(1-34)NH2
